Assay results published in PubChem BioAssay AID1918941 (Molecular Pharmacology Branch, DTP, NCI, 2023).
Where “and” joins values, the source holds several entries; their conditions need not be identical. Equal values may be shown once.

Tested on: SW 1271 complex spheroids, viability
Assay: Anticancer human tumor SW 1271 cell line growth inhibition [LSD1];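 further: spheroids exposed to agents for 7 days before luminescence read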;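 on viability, T/C: 100% = DMSO vehicle control viability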
Conditions: for viability, T/C: stronger effect = lower value
How it was run: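 Complex spheroids of tumor cells with HUVEC and human MSCs, exposed to iadademstat combined with other agents. Each agent tested in half-log steps from near clinical Cmax (else 10 microM top), DMSO ≤0.25%.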

[1] = curve of first compound, second compound 0.1 µM
[2] = curve of first compound, second compound 0.316 µM
[3] = curve of first compound, second compound 1 µM
[4] = curve of first compound, second compound 3.16 µM
[5] = curve of first compound, second compound 10 µM
[6] = second compound 0.1 µM, first compound 0.00949 µM
[7] = second compound 0.1 µM, first compound 0.03 µM
[8] = second compound 0.1 µM, first compound 0.0949 µM
[9] = second compound 0.1 µM, first compound 0.3 µM
[10] = second compound 0.1 µM, first compound 0.949 µM
[11] = second compound 0.1 µM, first compound 3 µM
[12] = second compound 0.316 µM, first compound 0.00949 µM
[13] = second compound 0.316 µM, first compound 0.03 µM
[14] = second compound 0.316 µM, first compound 0.0949 µM
[15] = second compound 0.316 µM, first compound 0.3 µM
[16] = second compound 0.316 µM, first compound 0.949 µM
[17] = second compound 0.316 µM, first compound 3 µM
[18] = second compound 1 µM, first compound 0.00949 µM
[19] = second compound 1 µM, first compound 0.03 µM
[20] = second compound 1 µM, first compound 0.0949 µM
[21] = second compound 1 µM, first compound 0.3 µM
[22] = second compound 1 µM, first compound 0.949 µM
[23] = second compound 1 µM, first compound 3 µM
[24] = second compound 3.16 µM, first compound 0.00949 µM
[25] = second compound 3.16 µM, first compound 0.03 µM
[26] = second compound 3.16 µM, first compound 0.0949 µM
[27] = second compound 3.16 µM, first compound 0.3 µM
[28] = second compound 3.16 µM, first compound 0.949 µM
[29] = second compound 3.16 µM, first compound 3 µM
[30] = second compound 10 µM, first compound 0.00949 µM
[31] = second compound 10 µM, first compound 0.03 µM
[32] = second compound 10 µM, first compound 0.0949 µM
[33] = second compound 10 µM, first compound 0.3 µM
[34] = second compound 10 µM, first compound 0.949 µM
[35] = second compound 10 µM, first compound 3 µM

CCN(c1cc(-c2ccc(CN3CCOCC3)cc2)cc(C(=O)NCc2c(C)cc(C)[nH]c2=O)c1C)C1CCOCC1 + NC1CCC(NC2CC2c2ccccc2)CC1
IC50 [1]: > 3000 nM | IC50 [2]: > 3000 nM | IC50 [3]: > 3000 nM | IC50 [4]: > 3000 nM | IC50 [5]: > 3000 nM | viability, T/C [6]: 98.7% | viability, T/C [7]: 97% | viability, T/C [8]: 93.6% | viability, T/C [9]: 94.8% | viability, T/C [10]: 82.5% | viability, T/C [11]: 75% | viability, T/C [12]: 95% | viability, T/C [13]: 113% | viability, T/C [14]: 98.8% | viability, T/C [15]: 93% | viability, T/C [16]: 85.5% | viability, T/C [17]: 67.3% | viability, T/C [18]: 104% | viability, T/C [19]: 103% | viability, T/C [20]: 107% | viability, T/C [21]: 94.2% | viability, T/C [22]: 71.6% | viability, T/C [23]: 75.8% | viability, T/C [24]: 119% | viability, T/C [25]: 107% | viability, T/C [26]: 104% | viability, T/C [27]: 94.6% | viability, T/C [28]: 76.5% | viability, T/C [29]: 56.8% | viability, T/C [30]: 106% | viability, T/C [31]: 105% | viability, T/C [32]: 88.7% | viability, T/C [33]: 95.6% | viability, T/C [34]: 72.9% | viability, T/C [35]: 66.9%

O=C(C=Cc1cccc(S(=O)(=O)Nc2ccccc2)c1)NO + NC1CC1c1ccc(-c2cccc(O)c2)cc1
IC50 [1]: 98.2 nM | IC50 [2]: 62.9 nM | IC50 [3]: 55.3 nM | IC50 [4]: 60 nM | IC50 [5]: 68.1 nM | viability, T/C [6]: 74.5% | viability, T/C [7]: 69% | viability, T/C [8]: 51.8% | viability, T/C [9]: 17.9% | viability, T/C [10]: 7.5% | viability, T/C [11]: 0.27% | viability, T/C [12]: 70.3% | viability, T/C [13]: 61.8% | viability, T/C [14]: 44% | viability, T/C [15]: 17.4% | viability, T/C [16]: 6.95% | viability, T/C [17]: 0.16% | viability, T/C [18]: 75.7% | viability, T/C [19]: 60.1% | viability, T/C [20]: 41.8% | viability, T/C [21]: 14.3% | viability, T/C [22]: 6.33% | viability, T/C [23]: 0.7% | viability, T/C [24]: 72.7% | viability, T/C [25]: 58.4% | viability, T/C [26]: 45.6% | viability, T/C [27]: 14.1% | viability, T/C [28]: 6.89% | viability, T/C [29]: 0.2% | viability, T/C [30]: 67.1% | viability, T/C [31]: 59.9% | viability, T/C [32]: 46.5% | viability, T/C [33]: 17.6% | viability, T/C [34]: 5.74% | viability, T/C [35]: 0.36%

CCc1c2c(nc3ccc(O)cc13)-c1cc3c(c(=O)n1C2)COC(=O)[C@]3(O)CC + NC1CC1c1ccc(-c2cccc(O)c2)cc1
IC50 [1]: < 0.949 nM | IC50 [2]: 1.07 nM | IC50 [3]: < 0.949 nM | IC50 [4]: < 0.949 nM | IC50 [5]: 2.83 nM | viability, T/C (second compound 0.1 µM, first compound 0.000949 µM): 48.1% | viability, T/C (second compound 0.1 µM, first compound 0.003 µM): 46% | viability, T/C [6]: 26.5% | viability, T/C [7]: 8.18% | viability, T/C [8]: 8.27% | viability, T/C [9]: 3.92% | viability, T/C (second compound 0.316 µM, first compound 0.000949 µM): 50.5% | viability, T/C (second compound 0.316 µM, first compound 0.003 µM): 45.4% | viability, T/C [12]: 25.9% | viability, T/C [13]: 10.3% | viability, T/C [14]: 8.68% | viability, T/C [15]: 6.46% | viability, T/C (second compound 1 µM, first compound 0.000949 µM): 49.4% | viability, T/C (second compound 1 µM, first compound 0.003 µM): 43% | viability, T/C [18]: 27.4% | viability, T/C [19]: 9.38% | viability, T/C [20]: 5.98% | viability, T/C [21]: 3.79% | viability, T/C (second compound 3.16 µM, first compound 0.000949 µM): 48.2% | viability, T/C (second compound 3.16 µM, first compound 0.003 µM): 50.2% | viability, T/C [24]: 26.7% | viability, T/C [25]: 9.15% | viability, T/C [26]: 5.19% | viability, T/C [27]: 5.82% | viability, T/C (second compound 10 µM, first compound 0.000949 µM): 56.6% | viability, T/C (second compound 10 µM, first compound 0.003 µM): 48.5% | viability, T/C [30]: 30.1% | viability, T/C [31]: 9.23% | viability, T/C [32]: 7.28% | viability, T/C [33]: 5.03%

COc1cc(Nc2ncc3c(n2)-c2ccc(Cl)cc2C(c2c(F)cccc2OC)=NC3)ccc1C(=O)O
viability, T/C (compound 0.00316 µM): 92.2% and 73.8% | viability, T/C (compound 0.01 µM): 86.8% and 78.9% | viability, T/C (compound 0.0316 µM): 72.8% and 73.9% | viability, T/C (compound 0.1 µM): 58.6% and 59% | viability, T/C (compound 0.316 µM): 42.5% and 36.9% | viability, T/C (compound 1 µM): 14.1% and 15.6% | IC50 (curve of compound): 179 nM and 164 nM
